Laboratory results as given in US11000033B2, “Ketone or oxime compound, and herbicide” (NISSAN CHEMICAL CORPORATION, priority 2014, dated 2021).

Legend:
Format in all cases: in vivo
Setaria viridis = assay: Test Example 4: herbicidal effect by soil treatment (symbol G); settings: application herbicide amount 320 g/ha
In short: (§1)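 Seeds were sown in sterilized diluvial soil, covered with about 1.5 cm of soil, and the soil surface was sprayed with a water-diluted emulsion of the compound at a predetermined rate. Plants grew in a greenhouse at 25° C. to 30° C.; effects were scored visually 3 weeks after application.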

[1] = test system: Echinochloa oryzacola Vasing.; assay: Test Example 2: herbicidal activity, application during weed generation in submerged conditions (symbol A); settings: Table 23; application herbicide amount 320 g/ha; grade 0-5 by criteria of Test Example 1
In short: (§2)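 Treatment timing was the one- to two-leaf stage, with diluted emulsifiable compound dropped onto the paddy water (depth 4 cm) over alluvial soil. All three species grew from a mixed sowing in a 25° C. to 30° C. greenhouse. Injury was judged by eye 3 weeks on.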

soybean = assay: Test Example 4: effect on crop by soil treatment (symbol d); settings: application herbicide amount 320 g/ha
In short: (§3)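 Greenhouse culture at 25° C. to 30° C. followed sowing of seed in spots on sterilized diluvial soil with a soil cover close to 1.5 cm thick.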

Abutilon theophrasti [2] = assay: Test Example 4: herbicidal effect by soil treatment (symbol M); settings: application herbicide amount 320 g/ha
In short: as §1

rice plant = assay: Test Example 5: effect on crop by foliage application, plastic box (symbol b); settings: 320 g/ha, 3 weeks after application
In short: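 Plants were raised from seed in a greenhouse (25° C. to 30° C.) after sowing in a plastic box of sterilized diluvial soil.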

Apera spica-venti [3] = assay: Test Example 4: herbicidal effect by soil treatment (symbol L); settings: application herbicide amount 320 g/ha
In short: as §1

Chenopodium album [4] = assay: Test Example 5: herbicidal effect by foliage application, plastic box (symbol O); settings: 320 g/ha, 3 weeks after application
In short: (§4)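 Effect is rated 3 weeks after a foliar spray of water-diluted emulsion concentrate at a predetermined herbicide amount. Plants had grown 14 days in a 25° C. to 30° C. greenhouse from seed in sterilized diluvial soil.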

Abutilon theophrasti [5] = assay: Test Example 5: herbicidal effect by foliage application, plastic box (symbol M); settings: 320 g/ha, 3 weeks after application
In short: as §4

Chenopodium album [6] = assay: Test Example 4: herbicidal effect by soil treatment (symbol O); settings: application herbicide amount 320 g/ha
In short: as §1

Galium spurium = assay: Test Example 4: herbicidal effect by soil treatment (symbol Q); settings: application herbicide amount 320 g/ha
In short: as §1

[7] = test system: Echinochloa crus-galli var. crus-galli; assay: Test Example 3: herbicidal effect by foliage application, Wagner pot (symbol H); settings: application herbicide amount 320 g/ha, Table 24
In short: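 The compound, formulated as an emulsion and diluted with water to a predetermined rate, is applied uniformly to leaves of two-week-old seedlings growing in submerged alluvial soil at 25–30 °C. Rice is included. Each plant is assessed 3 weeks later using defined criteria.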

Avena fatua = assay: Test Example 5: herbicidal effect by foliage application, plastic box (symbol I); settings: 320 g/ha, 3 weeks after application
In short: as §4

Veronica persica = assay: Test Example 5: herbicidal effect by foliage application, plastic box (symbol R); settings: 320 g/ha, 3 weeks after application
In short: as §4

beet = assay: Test Example 4: effect on crop by soil treatment (symbol f); settings: application herbicide amount 320 g/ha
In short: as §3

Digitaria ciliaris = assay: Test Example 4: herbicidal effect by soil treatment (symbol F); settings: application herbicide amount 320 g/ha
In short: as §1

Lolium multiflorum Lam. = assay: Test Example 4: herbicidal effect by soil treatment (symbol K); settings: application herbicide amount 320 g/ha
In short: as §1

Monochoria vaginalis = assay: Test Example 2: herbicidal activity, application during weed generation in submerged conditions (symbol C); settings: Table 23; application herbicide amount 320 g/ha; grade 0-5 by criteria of Test Example 1
In short: as §2

Apera spica-venti [8] = assay: Test Example 5: herbicidal effect by foliage application, plastic box (symbol L); settings: 320 g/ha, 3 weeks after application
In short: as §4

Stellaria media = assay: Test Example 5: herbicidal effect by foliage application, plastic box (symbol P); settings: 320 g/ha, 3 weeks after application
In short: as §4

Row | Compound | Herbicidal effect grade, G: Setaria viridis (Setaria viridis) | Herbicidal effect grade, A: Echinochloa oryzacola Vasing. [1] | Effect on crop grade, d: soybean (soybean) | Herbicidal effect grade, M: Abutilon theophrasti (Abutilon theophrasti [2]) | b: directly sowed rice plant, effect on crop grade (rice plant) | Herbicidal effect grade, L: Apera spica-venti (Apera spica-venti [3]) | O: Chenopodium album, herbicidal effect grade (Chenopodium album [4]) | M: Abutilon theophrasti, herbicidal effect grade (Abutilon theophrasti [5]) | Herbicidal effect grade, O: Chenopodium album (Chenopodium album [6]) | Herbicidal effect grade, Q: Galium spurium (Galium spurium) | H (Echinochloa crus-galli var. crus-galli) herbicidal effect grade [7] | I: Avena fatua, herbicidal effect grade (Avena fatua) | R: Veronica persica, herbicidal effect grade (Veronica persica) | Effect on crop grade, f: beet (beet) | Herbicidal effect grade, F: Digitaria ciliaris (Digitaria ciliaris) | Herbicidal effect grade, K: Lolium multiflorum Lam. (Lolium multiflorum Lam.) | Herbicidal effect grade, C: Monochoria vaginalis (Monochoria vaginalis) | L: Apera spica-venti, herbicidal effect grade (Apera spica-venti [8]) | P: Stellaria media, herbicidal effect grade (Stellaria media)
1 | CC#Cc1cc(C)c(C2=C(O)CC(CC(=NOC)C3CC3)C2=O)c(C)c1 (stereo not shown) [9-008] | 5 (Herbicidal ratio of 90% or more (almost completely withered)) | 5 (Herbicidal ratio of 90% or more (almost completely withered)) | 0 (Herbicidal ratio of 5% or lower (almost no effect)) | 4 (Herbicidal ratio of 70% or higher and lower than 90%) | 5 (Herbicidal ratio of 90% or more (almost completely withered)) | 5 (Herbicidal ratio of 90% or more (almost completely withered)) | 3 (Herbicidal ratio of 40% or higher and lower than 70%) | 4 (Herbicidal ratio of 70% or higher and lower than 90%) | 0 (Herbicidal ratio of 5% or lower (almost no effect)) | 0 (Herbicidal ratio of 5% or lower (almost no effect)) | 5 (Herbicidal ratio of 90% or more (almost completely withered)) | 4 (Herbicidal ratio of 70% or higher and lower than 90%) | 4 (Herbicidal ratio of 70% or higher and lower than 90%) | 0 (Herbicidal ratio of 5% or lower (almost no effect)) | 5 (Herbicidal ratio of 90% or more (almost completely withered)) | 5 (Herbicidal ratio of 90% or more (almost completely withered)) | 3 (Herbicidal ratio of 40% or higher and lower than 70%) | 5 (Herbicidal ratio of 90% or more (almost completely withered)) | 4 (Herbicidal ratio of 70% or higher and lower than 90%)
2 | Cc1cc(-n2cc(Cl)cn2)cc(C)c1C1=C(O)CC(CC(=NOCC(F)(F)F)C(C)C)C1=O (stereo not shown) [9-014] | 3 (Herbicidal ratio of 40% or higher and lower than 70%) | 2 (Herbicidal ratio of 20% or higher and lower than 40%) | 0 (Herbicidal ratio of 5% or lower (almost no effect)) | 0 (Herbicidal ratio of 5% or lower (almost no effect)) | 5 (Herbicidal ratio of 90% or more (almost completely withered)) | 0 (Herbicidal ratio of 5% or lower (almost no effect)) | 0 (Herbicidal ratio of 5% or lower (almost no effect)) | 0 (Herbicidal ratio of 5% or lower (almost no effect)) | 0 (Herbicidal ratio of 5% or lower (almost no effect)) | 0 (Herbicidal ratio of 5% or lower (almost no effect)) | 5 (Herbicidal ratio of 90% or more (almost completely withered)) | 4 (Herbicidal ratio of 70% or higher and lower than 90%) | 2 (Herbicidal ratio of 20% or higher and lower than 40%) | 0 (Herbicidal ratio of 5% or lower (almost no effect)) | 4 (Herbicidal ratio of 70% or higher and lower than 90%) | 0 (Herbicidal ratio of 5% or lower (almost no effect)) | 0 (Herbicidal ratio of 5% or lower (almost no effect)) | 3 (Herbicidal ratio of 40% or higher and lower than 70%) | 0 (Herbicidal ratio of 5% or lower (almost no effect))
3 | CC#Cc1cc(C)c(C2=C(O)CC(CC(=NOCCOC)C(C)C)C2=O)c(C)c1 (stereo not shown) [9-023] | 5 (Herbicidal ratio of 90% or more (almost completely withered)) | 5 (Herbicidal ratio of 90% or more (almost completely withered)) | 0 (Herbicidal ratio of 5% or lower (almost no effect)) | 0 (Herbicidal ratio of 5% or lower (almost no effect)) | 5 (Herbicidal ratio of 90% or more (almost completely withered)) | 5 (Herbicidal ratio of 90% or more (almost completely withered)) | 3 (Herbicidal ratio of 40% or higher and lower than 70%) | 0 (Herbicidal ratio of 5% or lower (almost no effect)) | 0 (Herbicidal ratio of 5% or lower (almost no effect)) | 0 (Herbicidal ratio of 5% or lower (almost no effect)) | 5 (Herbicidal ratio of 90% or more (almost completely withered)) | 4 (Herbicidal ratio of 70% or higher and lower than 90%) | 3 (Herbicidal ratio of 40% or higher and lower than 70%) | 0 (Herbicidal ratio of 5% or lower (almost no effect)) | 5 (Herbicidal ratio of 90% or more (almost completely withered)) | 3 (Herbicidal ratio of 40% or higher and lower than 70%) | 1 (Herbicidal ratio of 5% or higher and lower than 20%) | 5 (Herbicidal ratio of 90% or more (almost completely withered)) | 3 (Herbicidal ratio of 40% or higher and lower than 70%)
4 | CC(CC1CC(O)=C(c2c(C)cc(-c3ccc(Cl)cc3)cc2C)C1=O)=NOCC(F)(F)F (stereo not shown) [9-024] | 5 (Herbicidal ratio of 90% or more (almost completely withered)) | 3 (Herbicidal ratio of 40% or higher and lower than 70%) | 0 (Herbicidal ratio of 5% or lower (almost no effect)) | 0 (Herbicidal ratio of 5% or lower (almost no effect)) | 5 (Herbicidal ratio of 90% or more (almost completely withered)) | 5 (Herbicidal ratio of 90% or more (almost completely withered)) | 4 (Herbicidal ratio of 70% or higher and lower than 90%) | 3 (Herbicidal ratio of 40% or higher and lower than 70%) | 0 (Herbicidal ratio of 5% or lower (almost no effect)) | 0 (Herbicidal ratio of 5% or lower (almost no effect)) | 5 (Herbicidal ratio of 90% or more (almost completely withered)) | 5 (Herbicidal ratio of 90% or more (almost completely withered)) | 4 (Herbicidal ratio of 70% or higher and lower than 90%) | 0 (Herbicidal ratio of 5% or lower (almost no effect)) | 5 (Herbicidal ratio of 90% or more (almost completely withered)) | 5 (Herbicidal ratio of 90% or more (almost completely withered)) | 1 (Herbicidal ratio of 5% or higher and lower than 20%) | 5 (Herbicidal ratio of 90% or more (almost completely withered)) | 4 (Herbicidal ratio of 70% or higher and lower than 90%)
